Patent US8350084B2, “Alpha-(N-sulfonamido)acetamide compound as an inhibitor of beta amyloid peptide production” (priority 2007, dated 2013)
“Also recorded” adds a separate entry of the source.

Assays:
[1] = molecular target: T1, human pregnane-X receptor (Homo sapiens, UniProt O75469); assay: PXR transactivation assay; type: cell-based; conditions: hPXR transactivation, transfected HepG2 cells
T1 construct: expressed in transfected cells; host or cells: HepG2 cells (ATCC), transient transfection with Lipofectamine 2000
T1 sequence (O75469 1-434): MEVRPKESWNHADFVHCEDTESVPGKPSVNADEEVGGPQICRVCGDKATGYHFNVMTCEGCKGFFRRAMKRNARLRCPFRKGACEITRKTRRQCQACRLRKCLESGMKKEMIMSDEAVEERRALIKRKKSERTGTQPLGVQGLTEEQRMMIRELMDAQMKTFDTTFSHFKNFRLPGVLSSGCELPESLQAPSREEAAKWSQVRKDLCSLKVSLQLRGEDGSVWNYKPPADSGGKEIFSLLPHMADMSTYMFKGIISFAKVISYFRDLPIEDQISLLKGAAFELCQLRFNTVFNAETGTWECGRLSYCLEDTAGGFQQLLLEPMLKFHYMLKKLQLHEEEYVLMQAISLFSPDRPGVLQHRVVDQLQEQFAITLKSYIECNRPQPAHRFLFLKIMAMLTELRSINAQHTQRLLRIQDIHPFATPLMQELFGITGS
Text: Pregnane X receptor (PXR) is a nuclear hormone receptor principally responsible for the induction of cytochrome P450 (CYP) 3A4, which plays a major role in metabolizing many clinically prescribed drugs. It is well known that the induction of CYP3A4 can cause either drug-drug interaction by increasing the metabolic clearance of co-administered CYP3A4 substrates (Bertilsson, G. et al., Proc. Nat. Acad. Sci. USA (1998) 95: 12208-12213; Lehmann, J. M. et al., J. Clin. Invest. (1998) 102: 1016-1023) or can cause loss of drug exposure due to autoinduction. Characterizing the induction potential of discovery or development drug candidates has become an important screen throughout the pharmaceutical industry. A PXR transactivation assay is used to assess the induction potential of CYP3A4, and a cytotoxicity assay of HepG2 cells is used to monitor the assay interference due to cytotoxicity.
Cell culture medium used is DMEM. Lipofectamine 2000, PBS, trypsin-EDTA (0.25%), and penicillin-streptomycin were purchased from GIBCO/Invitrogen (Carlsbad, Calif.). […]
Cells in each flask are washed with PBS and 4 mL of Trypsin-EDTA (0.25%) is added and incubated for one minute at room temperature. […] Cells are then counted and diluted in media to 3.0×10^5 cells/mL. […] After fifteen minutes, plates are read on a Viewlux (Perkin-Elmer) plate reader. […]

[2] = system: γ-secretase inhibitor binding sites in the brain; assay: Gamma-secretase site occupancy in rat brain; type: in vivo; conditions: single dose 1 mg/kg, by 24 hours
Description: (§1) Female Harlan Sprague-Dawley rats (˜200-250 g) were dosed daily by oral gavage with a dosing vehicle of 99% PEG-400, 1% Tween-80 at 4 mL/kg in the morning. […] Plasma was obtained after centrifugation. […] CSF samples were centrifuged to remove cells or debris prior to dilution at 1:2 in 4% BSA and frozen for subsequent analysis.
Brain sections were cut coronally at a thickness of 20 μm on a cryostat and thaw-mounted onto Superfrost Plus slides. Sections were saved at the level of the rostral hippocampus, with 3 sections per slide at intervals of about 120 μm, and frozen at −20° C. until use. For occupancy studies, brain sections were warmed to room temperature, dried, incubated for 10 minutes in 50 mM HEPES buffer, pH 7.4, then transferred to the same buffer containing 1.5 nM [^3H]IN973 (Goldstein, M. E. et al., J. Pharmacol. Exp. Ther. (2007) 323:102-108) or [^3H] (R)-4-((N-(1-amino-4-methyl-1-oxopentan-2-yl)-4-chlorophenylsulfonamido)methyl)-N-(2-methoxyethyl)benzamide and incubated at room temperature for 10 minutes. To define nonspecific binding, adjacent sections were incubated in buffer containing [^3H]IN973 or [^3H] […] Optical densities (expressed as digital light units per square millimeter) over areas of interest were measured and expressed as a percent of vehicle control.

[3] = system: proximal duodenum; assay: Rat duodenum histopathology (GI toxicity); type: in vivo; conditions: 100 mg/kg/day once daily for 4 days
Description: as §1
Following euthanasia by CO2 asphyxiation, approximately 3 cm long sections of the proximal duodenum were removed from the abdomen, rinsed with ice cold Phosphate buffered saline and placed into 10% buffered formalin prior to sectioning. Tissue sections of the duodenum were embedded in liquid paraffin, mounted onto blocks, and cut into triplicate sagittal (cross-luminal) ring sections and stained using the Periodic acid Schiff's base method prior to microscopic evaluation. All animals survived until scheduled necropsy was performed.

[4] = system: CYP3A4 mRNA; conditions: human, 3 days, 20 μM
Description: Fa2N-4 cells and MFE Support Media F were provided by XenoTech, LLC (Lenexa, Kans.).
Fa2N-4 cells were supplied on 12-well, collagen-coated plates at a seeding density of 0.67×10^6 cells per well. Upon the receipt of the cells, the media were changed and the cells maintained overnight in a humidified, CO2-supplied incubator. After this adaptation period, the cells were examined under a light microscope and a determination was made as to whether the cells were morphologically normal and suitable for use. During the treatment period, the cells were visually inspected on a daily basis; cellular morphology, confluency, and signs of toxicity due to the test article were documented as necessary. […] Fa2N-4 cells were exposed to the test articles for a total of 3 days. The culture medium was replaced daily with fresh medium containing the test articles. After a total of ˜72 hours of exposure, medium was aspirated and the cells washed once with warm phosphate buffered saline solution before adding the cell lysis buffer (Qiagen, Valencia, Calif.).

[5] = system: mouse Notch1-ΔE; conditions: Notch IC50 / Aβ40 IC50, 95% CI=163-232
Description: Since inhibition of Notch signaling causes undesired, mechanism-based side effects, a cellular assay for Notch1-ΔE signaling was used to counterscreen γ-secretase inhibitors.
Hela cells were maintained in DMEM (GibcoBRL) containing 10% FBS (GibcoBRL), Penicillin/Streptomycin (GibcoBRL) and 2 mM L-glutamine (GibcoBRL). Cells were transiently transfected using TransIT-HelaMONSTER (Mires) according to the manufacturer's directions. Hela cells (ATCC) were plated 16 hours before transfection at a density of 4×10^6 cells per T175 flask in Hela growth media (DMEM (high glucose with HEPES) with glutamine, penicillin, streptomycin and 10% fetal bovine serum). […] Cells were plated into 96 well black Clearview plates (Packard) at a volume of 200 μL/well (1×10^4 cells) and incubated at 37° C. for 1.5 hours to allow cells to adhere to the plates. Test compounds were initially diluted in a 96 well polypropylene plate in 100% DMSO. […] Diluted compound solutions (10 μL) were added to the cell plate yielding a final 0.1% DMSO concentration. Cell plates containing compound were incubated overnight at 37° C. […] The plate was incubated at room temperature for 10 minutes before black backing was attached to the bottom of the plate and the signal was read on a TopCount (Packard). […]

[6] = female, Sprague-Dawley, rat, in vivo
Description: Animals were euthanized 12 or 24 hours after the third dose or 5 hours after the fourth dose.

[7] = system: brain Aβ40; assay: Rat brain Abeta40 assay (252-TSD ELISA); conditions: for Terminal Brain Abeta 40 5 hr: 5 hr after fourth dose; for Terminal Brain Abeta 40 12 hr: 12 hr after third dose; for Terminal Brain Abeta 40 24 hr: 24 hr after third dose

NC(=O)[C@@H](CCC(F)(F)F)N(Cc1ccc(-c2ncon2)cc1F)S(=O)(=O)c1ccc(Cl)cc1 [(2R)-2-[[(4-chlorophenyl)sulfonyl][[2-fluoro-4-(1,2,4-oxadiazol-3-yl)phenyl]methyl]amino]-5,5,5-trifluoropentanamide]
EC20A (20% of the Rifampicin response at 10 μM) [1]: 6.9 µM | EC60A (60% of the Rifampicin response at 10 μM) [1]: greater than 16.7 μM | brain γ-secretase site occupancy [2]: gradually returned to baseline values | histological evaluation of duodenal tissue [3]: ⅓ rats dosed with 100 mg/kg/day had mild lesions; also recorded: slight goblet cell metaplasia | induction as % of the induction response caused by rifampicin [4]: 22% | Notch/APP selectivity [5]: 193 X | compound exposures after 3 doses relative to exposures after the initial dose [6]: ≤ 2 fold | Terminal Brain Abeta 40 5 hr ([7]; Study No. 1, 3 mg/kg/day): 39% Veh | Terminal Brain Abeta 40 12 hr ([7]; Study No. 1, 3 mg/kg/day): 35% Veh | Terminal Brain Abeta 40 24 hr ([7]; Study No. 1, 3 mg/kg/day): 92% Veh | Terminal Brain Abeta 40 5 hr ([7]; Study No. 1, 10 mg/kg/day): 12% Veh | Terminal Brain Abeta 40 12 hr ([7]; Study No. 1, 10 mg/kg/day): 9% Veh | Terminal Brain Abeta 40 24 hr ([7]; Study No. 1, 10 mg/kg/day): 28% Veh | Terminal Brain Abeta 40 5 hr ([7]; Study No. 1, 30 mg/kg/day): 8% Veh | Terminal Brain Abeta 40 12 hr ([7]; Study No. 1, 30 mg/kg/day): 9% Veh | Terminal Brain Abeta 40 24 hr ([7]; Study No. 1, 30 mg/kg/day): 13% Veh | Terminal Brain Abeta 40 5 hr ([7]; Study No. 2, 3 mg/kg/day): 16% Veh | Terminal Brain Abeta 40 12 hr ([7]; Study No. 2, 3 mg/kg/day): 34% Veh | Terminal Brain Abeta 40 24 hr ([7]; Study No. 2, 3 mg/kg/day): 94% Veh | Terminal Brain Abeta 40 5 hr ([7]; Study No. 2, 10 mg/kg/day): 6% Veh | Terminal Brain Abeta 40 12 hr ([7]; Study No. 2, 10 mg/kg/day): 4% Veh | Terminal Brain Abeta 40 24 hr ([7]; Study No. 2, 10 mg/kg/day): 23% Veh | Terminal Brain Abeta 40 5 hr ([7]; Study No. 2, 30 mg/kg/day): 6% Veh | Terminal Brain Abeta 40 12 hr ([7]; Study No. 2, 30 mg/kg/day): 4% Veh | Terminal Brain Abeta 40 24 hr ([7]; Study No. 2, 30 mg/kg/day): 15% Veh | Terminal Brain Abeta 40 5 hr ([7]; Study No. 2, 100 mg/kg/day): 3% Veh | Terminal Brain Abeta 40 12 hr ([7]; Study No. 2, 100 mg/kg/day): 3% Veh | Terminal Brain Abeta 40 24 hr ([7]; Study No. 2, 100 mg/kg/day): 7% Veh | Day 7 5 hr Brain Aβ40 ([7]; Study No. 3, 30 mg/kg/day): 13% Veh | Day 7 5 hr Brain Aβ40 ([7]; Study No. 3, 300 mg/kg/day): 13% Veh
